Test results as given in patent publication US20030187017A1, “Method for treating functional dyspepsia” (priority 2002, published 2003).

Tests used:
FD patients [1] = experiment: 12-week double-blind placebo-matched clinical study in FD patients: adequate relief of upper abdominal pain or discomfort and FD symptoms; assay type: in vivo, human; conditions: for Average Weekly Adequate Relief of Pain and Discomfort, Adequate Relief Rates: 12 weeks
Protocol: Three hundred and twenty (320) ambulatory outpatient male and female FD patients at least 18 years of age who have chronic or recurrent abdominal pain or discomfort centered in the upper abdomen were randomised for study comprising twelve (12) weeks of treatment: eighty one (81) were randomised to treatment with placebo BID, seventy seven (77) to 0.5 mg BID alosetron, seventy nine (79) to 1 mg BID alosetron, and eighty three (83) to 2 mg BID alosetron. Study participants included patients who have been diagnosed with FD and patients with symptoms that fulfilled the modified Rome criteria for FD for at least 6 months. Study participants were screened for two weeks prior to the testing phase, to confirm symptoms of sufficient severity for participation in the study. During the two-week screening period, those patients enrolled from the U.S. underwent a 90-minute gastric emptying test to characterize their gastric motility. At the end of the two-week period, all study participants underwent an esophagogastroduodenoseope (EGD) to rule out organic disease and obtain a biopsy for H. pylori within one month of screening. The study was double-blinded and placebo-matched. Eligible subjects were randomized (1:1:1:1 ratio) to either alosetron 0.5 mg, 1 mg, 2 mg, or matched placebo twice daily for a 12-week treatment phase followed by a one-week follow-up period. Laboratory evaluations and adverse events were recorded at the 4, 8 and 12-week (or final) treatment visits. The study was designed to elicit measurements relating to efficacy and safety. The primary endpoint was adequate relief of FD (upper abdominal) pain or discomfort. Secondary endpoints included 1) changes in daily upper abdominal pain severity ratings, 2) proportion of pain free days, 3) changes in self-ratings of nausea, early satiety, bloating or distension, post-prandial fullness and burping or belching, 4) changes in quality of life (QOL) SF-36 scores, 5) changes in SCL-90R® scores, and 6) safety and tolerability with respect to the incidence of adverse events and changes in laboratory values. Daily and weekly symptom data were collected using an electronic touch-tone telephone based system described in J. Harding, et al., Gastroenterology 112:[…] (1997); and J. Harding, et al., Aliment Pharm. Ther. 11:1073-761997. Severity of abdominal pain, nausea and bloating were assessed on a daily basis using a five point scale (0=none; 1=very mild; 2=mild; 3=moderate; 4=severe). During screening, the pain severity score was required to average ≧1.5 for entry into the study. During the treatment and follow-up phases, subjects were asked weekly if they had obtained adequate relief of their upper abdominal pain or discomfort during the previous 7 days. Subjects also responded daily to yes/no questions assessing whether early satiety, post-prandial fullness and burping or belching were present. Analyses were by Intent-to-Treat (ITT) using the last observation carried forward (LOCF) method for handling missing data. The ITT population included all subjects randomized to study treatment. The primary efficacy endpoint was the adequate relief of upper abdominal pain or discomfort. The 12-week average rate of adequate relief was calculated as the sum of the number of responses of “yes” over the 12 weeks of the treatment phase divided by 12 and multiplied by 100 using the LOCF approach. The proportion of patients with weekly adequate relief of upper abdominal pain or discomfort was compared between treatment groups using the Mantel-Haenszel test stratified by geographical clusters of treatment centers. Secondary efficacy measures included subject self-rating of pain severity, frequency and the FD symptoms of nausea, bloating/distension, burping/belching, early satiety and post-prandial fullness. […]

healthy subjects = conditions: isobarometric and isovolumetric gastric distensions; cited from earlier work
FD patients [2] = experiment: Adverse events in the 12-week clinical study in FD patients; assay type: in vivo, human
Protocol: The study was double-blinded and placebo-matched. Eligible subjects were randomized (1:1:1:1 ratio) to either alosetron 0.5 mg, 1 mg, 2 mg, or matched placebo twice daily for a 12-week treatment phase followed by a one-week follow-up period. Laboratory evaluations and adverse events were recorded at the 4, 8 and 12-week (or final) treatment visits.
Adverse events were coded and group by body system. Adverse events occurring after randomization were summarized separately from adverse events occurring during the screening phase. For each body system and over all body systems, the frequency of subjects reporting at least one adverse event was calculated by treatment group. In addition, the number of subjects reporting at least one drug-related adverse event and the number of subjects reporting serious adverse events were summarized by treatment group. The four treatment groups were compared using a correlation chi-square test; pairwise comparisons were made with Fisher's exact test.

[3] = test system: FD patients and healthy controls; conditions: cited from earlier work

Cc1[nH]cnc1CN1CCc2c(c3ccccc3n2C)C1=O [Alosetron, 2,3,4,5-tetrahydro-5-methyl-2-[(5-methyl-1H-imidazol-4-yl)methyl]-1H-pyrido[4,3-b]indol-1-one]
Average Weekly Adequate Relief, % with Adequate Relief (FD patients [1]; Abnormal gastric emptying (n = 14-16), 0.5 mg BID): 51%
Average Weekly Adequate Relief, % with Adequate Relief (FD patients [1]; Abnormal gastric emptying (n = 14-16), 1 mg BID): 59%
Average Weekly Adequate Relief, % with Adequate Relief (FD patients [1]; Abnormal gastric emptying (n = 14-16), 2 mg BID): 45%
Abdominal pain and discomfort (FD patients [1]; FD patients, particularly female FD patients): substantially improved
Average Weekly Adequate Relief of Pain and Discomfort, Adequate Relief Rates (FD patients [1]; Females (n = 50-60), 0.5 mg BID): 49
Average Weekly Adequate Relief of Pain and Discomfort, Adequate Relief Rates (FD patients [1]; Females (n = 50-60), 1 mg BID): 54
Average Weekly Adequate Relief of Pain and Discomfort, Adequate Relief Rates (FD patients [1]; Females (n = 50-60), 2 mg BID): 43
Average Weekly Adequate Relief of Pain and Discomfort, Adequate Relief Rates (FD patients [1]; Males (n = 20-33), 0.5 mg BID): 39
Average Weekly Adequate Relief of Pain and Discomfort, Adequate Relief Rates (FD patients [1]; Males (n = 20-33), 1 mg BID): 43
Average Weekly Adequate Relief of Pain and Discomfort, Adequate Relief Rates (FD patients [1]; Males (n = 20-33), 2 mg BID): 40
Average Weekly Adequate Relief, % with Adequate Relief (FD patients [1]; Normal gastric emptying (n = 32-34), 0.5 mg BID): 60%
Average Weekly Adequate Relief, % with Adequate Relief (FD patients [1]; Normal gastric emptying (n = 32-34), 1 mg BID): 56%
Average Weekly Adequate Relief, % with Adequate Relief (FD patients [1]; Normal gastric emptying (n = 32-34), 2 mg BID): 43%
Improvement in adequate relief by gastric emptying status (FD patients [1]; all doses, subjects with normal and subjects with abnormal gastric emptying): Improvement was observed for all doses
Adequate relief rate as compared with placebo (FD patients [1]; each dose (0.5, 1, 2 mg BID)): greater adequate relief rate as compared with placebo
Nausea, early satiety and post-prandial fullness (FD patients [1]; female patients and patients with normal gastric emptying): substantially improved
Visceral perception scores (healthy subjects): effect similar to placebo
Adverse Events: Any event (FD patients [2]; 0.5 mg BID): 68%
Adverse Events: GI event (FD patients [2]; 0.5 mg BID): 58%
Adverse Events: Neurology (FD patients [2]; 0.5 mg BID): 9%
Adverse Events: constipation (FD patients [2]; 0.5 mg BID): 45%
Adverse Events: Any event (FD patients [2]; 1 mg BID): 68%
Adverse Events: GI event (FD patients [2]; 1 mg BID): 52%
Adverse Events: Neurology (FD patients [2]; 1 mg BID): 4%
Adverse Events: constipation (FD patients [2]; 1 mg BID): 34%
Adverse Events: Any event (FD patients [2]; 2 mg BID): 75%
Adverse Events: GI event (FD patients [2]; 2 mg BID): 63%
Adverse Events: Neurology (FD patients [2]; 2 mg BID): 16%
Adverse Events: constipation (FD patients [2]; 2 mg BID): 46%
Tolerability (FD patients [2]; FD patients): well-tolerated

CN1[C@@H]2CC[C@H]1C[C@@H](OC(=O)c1c[nH]c3ccccc13)C2 [tropisetron]
Gastric accommodation, reflex relaxation or gastric sensitivity [3]: did not influence
